Test results from ChEMBL document CHEMBL2086335, “Three new 12-carbamoylated streptothricins from Streptomyces sp. I08A 1776” (2012).
In brackets after ≈: the same amount, converted by molar mass.

Experiments:
Type in all cases: functional
[1] = tested on: Mycobacterium tuberculosis; assay: Antibacterial activity against drug-resistant Mycobacterium tuberculosis 926 by microbroth dilution method
[2] = tested on: Mycobacterium tuberculosis; assay: Ratio of rifampicin MIC to compound MIC for extensively drug-resistant Mycobacterium tuberculosis
[3] = tested on: Mycobacterium tuberculosis; assay: Ratio of isoniazid MIC to compound MIC for extensively drug-resistant Mycobacterium tuberculosis
[4] = tested on: Mycobacterium tuberculosis; assay: Antibacterial activity against drug-resistant Mycobacterium tuberculosis 164 by microbroth dilution method

| SMILES | MIC [1] [µg/mL] | Ratio [2] | Ratio [3] | MIC [4] [µg/mL] |
| --- | --- | --- | --- | --- |
| NCCC[C@H](N)CC(=O)NCCC[C@H](N)CC(=O)N[C@@H]1[C@H](O)[C@@H](OC(N)=O)[C@@H](CO)O[C@H]1NC1=N[C@@H]2C(=O)NC[C@@H](O)[C@H]2N1 [STREPTOTHRICIN E] | 0.25 (≈ 0.396 µM) | 8 | 8 | 0.5 (≈ 0.793 µM) |
| NCCC[C@H](N)CC(=O)NCCC[C@H](N)CC(=O)N[C@@H]1[C@H](O)[C@@H](O)[C@@H](COC(N)=O)O[C@H]1/N=C1\N[C@@H]2[C@H](O)CNC(=O)[C@H]2N1 | 8 (≈ 12.7 µM) |  |  | 8 (≈ 12.7 µM) |
| CO[C@H]1/C=C/O[C@@]2(C)Oc3c(C)c(O)c4c(O)c(c(/C=N/N5CCN(C)CC5)c(O)c4c3C2=O)NC(=O)/C(C)=C\C=C\[C@H](C)[C@H](O)[C@@H](C)[C@@H](O)[C@@H](C)[C@H](OC(C)=O)[C@@H]1C [RIFAMPIN] | 16 (≈ 19.4 µM) |  |  | 32 (≈ 38.9 µM) |
| NNC(=O)c1ccncc1 [ISONIAZID] | 4 (≈ 29.2 µM) |  |  | 4 (≈ 29.2 µM) |
